Drawing on publication PMC7405012, “Detection of Chaetomium globosum, Ch. cochliodes and Ch. rectangulare during the Diversity Tracking of Mycotoxin-Producing Chaetomium-like Isolates Obtained in Buildings in Finland” (Toxins, 2020), this text covers EC50 for five molecules.

In brackets after ≈: the same amount, converted by molar mass. Where two headings read alike, the source gives them in different places.

The test system of one experiment is Ch. cochliodes OT7b. As to the kind of experiment: Resistance to biocides: ascospore germination. The format is cell-based. Particulars: strain OT7b, indoor Ch. cochliodes. How it is done: (§1) The toxicity of biocides and chemicals towards the indoor Chaetomium-like isolates and the reference indoor strains of the genera Aspergillus, Paecilomyces, Penicillium and Trichoderma was assessed in parallel with the six parameters presented in the Supplementary Materials: (1) germ tube assay (Figure S3); (2) estimation of turbidity (Figure S4); (3) visual emission of fluorescence (excitation at 360 nm); (4) visual resporulation of conidia; (5) inhibition of glucose consumption; and (6) resazurin reduction. All assays were performed in malt extract broth (12 g L^−1 malt extract, 7.2 µmol mL^−1 glucose, pH 5.5; Scharlab, Barcelona, Spain) in 96-well microtiter plates as described for the ICP assay.
(§2) The assays measuring inhibition of germination of conidia were done with spore suspensions of 1–2 × 10^6 fungal spores mL−^1. The tests were performed in malt extract broth (Oxoid, Hampshire United Kingdom) 12 g in 1 L, pH 5.5, glucose 7.1 mmol L^−1, and performed on microtiter plates as described by Bencsik et al. for the ICP assay. The germ tube germination is visualized in Figure S3, and the tests estimating turbidity and emission of fluorescence provoked by the germinated and metabolically active conidia and C. globosum ascospores are visualized in Figures S4 and S5. Examples of the tests estimating fluorescence emission, turbidity and re-sporulation of conidia and ascospores are compared in Figure S5. The difference of the endpoints measured with the different assays was between […]. The resazurin reduction assays (Figure S6) were performed as described for the ICP assay, except that the microtiter plates were visually inspected for the change of the blue/violet color of resazurin (indicating inhibition of germination of the exposed conidia) to the […] (indicating metabolic activity and germination of the exposed conidia).
(§3) The formation of germ tubes was inspected by a phase-contrast microscope (Olympus CKX41, Tokyo, Japan; magnification 400×) and an image recording software (Cellsense® standard version 11.0.06, Olympus Soft Imaging Solutions GmbH, Münster, Germany, 2012) after 1 and 2 days of incubation at 28 °C. The EC50 corresponded to the inhibition of 50% (estimated as the concentration between EC0 and EC100) of the conidia compared to the ethanol control (the growth medium containing 1% of ethanol). The tests were run in triplicate and calibrated with triclosan (CAS: 3380-34-5; Sigma Chemical Co., St. Louis, MO, USA) giving a mean SD of ±<20%.

The test system of the next experiment is Ch. cochliodes OT7. As to the kind of experiment: Resistance to biocides: ascospore germination. The format is cell-based. Conditions: strain OT7, indoor Ch. cochliodes. How it is done: as §1, §2, §3
The next experiment has as its system Ch. rectangulare M015. As to the kind of experiment: Resistance to biocides: ascospore germination. The experiment is classed as cell-based. Conditions: strain M015, indoor Ch. rectangulare. As to the method: as §1, §2, §3
The next experiment deals with Ch. rectangulare Mo13. As to the kind of experiment: Resistance to biocides: ascospore germination. The format is cell-based. How it is done:
as §1, §2, §3

Experiment [1] relates to Outdoor Chaetomium-like strain CH1/tu. As to the kind of experiment: Resistance to biocides: ascospore germination. The experiment is classed as cell-based, Unidentified Chaetomium-like strain. As to the method:
as §1
The assays measuring inhibition of germination of conidia were done with spore suspensions of 1–2 × 10^6 fungal spores mL−^1. […] The germ tube germination is visualized in Figure S3, and the tests estimating turbidity and emission of fluorescence provoked by the germinated and metabolically active conidia and C. globosum ascospores are visualized in Figures S4 and S5. Examples of the tests estimating fluorescence emission, turbidity and re-sporulation of conidia and ascospores are compared in Figure S5. The difference of the endpoints measured with the different assays was between 38% and <28.5%. […]

In experiment [2] the test system is Aspergillus section Flavi 1/37. Put plainly: Resistance to biocides: conidial germination. The experiment is classed as cell-based. Conditions: strain 1/37, indoor Aspergillus section Flavi. How it is done:
as §1, §2, §3

The subject of experiment [3] is Aspergillus section Flavi 7D. As to the kind of experiment: Resistance to biocides: conidial germination. The format is cell-based. Particulars: strain 7D, indoor Aspergillus section Flavi. How it is done:
as §1, §2, §3

For experiment [4], the system named is Aspergillus versicolor Gas/226. Put plainly: Resistance to biocides: conidial germination. The experiment is classed as cell-based. Conditions: strain Gas/226, Aspergillus versicolor. As to the method:
as §1, §2, §3

The test system of experiment [5] is Aspergillus versicolor SL/3. Put plainly: Resistance to biocides: conidial germination. The experiment is classed as cell-based. Particulars: strain SL/3, Aspergillus versicolor. As to the method:
as §1, §2, §3

The test system of experiment [6] is Aspergillus westerdijkiae AW/KL. As to the kind of experiment: Resistance to biocides: conidial germination. The experiment is classed as cell-based. Conditions: strain AW/KL. As to the method: as §1, §2, §3
The test system of experiment [7] is Aspergillus westerdijkiae PP2. As to the kind of experiment: Resistance to biocides: conidial germination. The format is cell-based. Particulars: strain PP2, Aspergillus westerdijkiae. How it is done:
as §1, §2, §3

For experiment [8], the system named is Indoor Trichoderma atroviride H1/226. As to the kind of experiment: Resistance to biocides: conidial germination. Conditions: strain H1/226, indoor Trichoderma atroviride. The experiment is classed as cell-based. How it is done:
as §1, §2, §3

The next experiment has as its system Penicillium sp. 35/skk. Put plainly: Resistance to biocides: conidial germination. The experiment is classed as cell-based. Particulars: strain 35/skk, indoor Penicillium sp. As to the method: as §1, §2, §3
A further experiment relates to Penicillium sp. 5/skk. As to the kind of experiment: Resistance to biocides: conidial germination. The format is cell-based. Particulars: strain 5/skk, indoor Penicillium sp. How it is done:
as §1, §2, §3

Another experiment deals with Penicillium sp. HJ2. As to the kind of experiment: Resistance to biocides: conidial germination. Particulars: strain HJ2, indoor Penicillium sp. The experiment is classed as cell-based. How it is done: as §1, §2, §3
The test system of the next experiment is Penicillium sp. Vaip/skk. As to the kind of experiment: Resistance to biocides: conidial germination. The format is cell-based. Particulars: strain Vaip/skk, indoor Penicillium sp. As to the method: as §1, §2, §3
Experiment [9] relates to Trichoderma longibrachiatum THG. As to the kind of experiment: Resistance to biocides: conidial germination. The experiment is classed as cell-based. Conditions: strain THG, indoor Trichoderma longibrachiatum. As to the method: as §1, §2, §3

In the case of `O=BOB(O)OB(O)OB=O` [Borax, sodium tetraborate], the EC50 (usually the concentration at which the effect is half-maximal) with Ch. cochliodes OT7b (read-out: EC50) was 750 µg/mL; in the experiment with Ch. cochliodes OT7 (read-out: EC50), 750 µg/mL; with Ch. rectangulare M015 (read-out: EC50), 5000 µg/mL; in the experiment with Ch. rectangulare Mo13, over 5000 µg/mL; in experiment [1] (read-out: EC50), 1200 µg/mL; in [2] (FLAVI1/37, read-out: EC50), 5000 µg/mL. Further, the 50% effective concentration (EC50) in experiment [3] (FLAVI7D, read-out: EC50) was 2500 µg/mL; in experiment [4] (read-out: EC50), 5000 µg/mL; in experiment [5] (read-out: EC50) it was 5000 µg/mL; in [6] (read-out: EC50), 2500 µg/mL; in experiment [7] (read-out: EC50) it was 5000 µg/mL; in experiment [8] (read-out: EC50), 1200 µg/mL. In addition, the EC50 is 5000 µg/mL in the experiment on Penicillium sp. 35/skk (SP.35/SKK, read-out: EC50); 2500 µg/mL in the experiment on Penicillium sp. 5/skk (SP.5/SKK, read-out: EC50); 2500 µg/mL in the experiment on Penicillium sp. HJ2 (read-out: EC50); over 5000 µg/mL with Penicillium sp. Vaip/skk (read-out: EC50); 1200 µg/mL in experiment [9] (read-out: EC50).

With `OCCOc1ccccc1` [Phenoxy-ethanol, phenoxyethanol], the EC50 with Ch. cochliodes OT7b (read-out: EC50) worked out at 3000 µg/mL (≈ 21.7 mM); in the experiment on Ch. cochliodes OT7 (read-out: EC50) it was 3000 µg/mL (≈ 21.7 mM); in the experiment on Ch. rectangulare M015 (read-out: EC50) it was 1500 µg/mL (≈ 10.9 mM); in [2] (FLAVI1/37, read-out: EC50), 1500 µg/mL (≈ 10.9 mM); in experiment [3] (FLAVI7D, read-out: EC50), 1500 µg/mL (≈ 10.9 mM); in experiment [4] (read-out: EC50), 400 µg/mL (≈ 2.9 mM). Also, the EC50 in experiment [5] (read-out: EC50) was found to be 800 µg/mL (≈ 5.79 mM); in [6] (read-out: EC50), 1500 µg/mL (≈ 10.9 mM); in experiment [7] (read-out: EC50) it was 1500 µg/mL (≈ 10.9 mM); in experiment [8] (read-out: EC50) it was 1500 µg/mL (≈ 10.9 mM); in the experiment on Penicillium sp. 35/skk (SP.35/SKK, read-out: EC50), 350 µg/mL (≈ 2.53 mM); in the experiment on Penicillium sp. 5/skk (SP.5/SKK, read-out: EC50), 1500 µg/mL (≈ 10.9 mM). Moreover, the figures for the 50% effective concentration (EC50) (in the experiment on Penicillium sp. HJ2 (read-out: EC50); with Penicillium sp. Vaip/skk (read-out: EC50); in experiment [9] (read-out: EC50)) were 800 µg/mL (≈ 5.79 mM), 800 µg/mL (≈ 5.79 mM) and 1500 µg/mL (≈ 10.9 mM), respectively.

For “polyhexamethylene biguanide hydrochloride [PHMB]”, the half-maximal effective concentration (EC50) stood at 8 µg/mL in the experiment with Ch. cochliodes OT7b; 8 µg/mL in the experiment on Ch. cochliodes OT7; 4 µg/mL in the experiment on Ch. rectangulare M015; 4 µg/mL in the experiment on Ch. rectangulare Mo13 (strain Mo13, indoor Ch. rectangulare); 4 µg/mL in experiment [1]; 120 µg/mL in experiment [2]. For the same molecule, the EC50 in experiment [3] came to 120 µg/mL; in experiment [4], 60 µg/mL; in experiment [5], 60 µg/mL; in experiment [6] it was 60 µg/mL; in experiment [7] it was 60 µg/mL; in experiment [8] it was 2 µg/mL. The EC50 in the experiment on Penicillium sp. 35/skk is 30 µg/mL; in the experiment on Penicillium sp. 5/skk, 8 µg/mL; with Penicillium sp. HJ2, 1 µg/mL; with Penicillium sp. Vaip/skk it was 8 µg/mL; in experiment [9], 1 µg/mL.

In the case of `NCl` [Chloramine, chloramine], the EC50 in the experiment on Ch. rectangulare M015 worked out at 1200 µg/mL (≈ 23.3 mM); in experiment [2], 600 µg/mL (≈ 11.7 mM); in experiment [3] it was 600 µg/mL (≈ 11.7 mM); in experiment [5], 600 µg/mL (≈ 11.7 mM); in experiment [6] it was 600 µg/mL (≈ 11.7 mM); in experiment [7], 600 µg/mL (≈ 11.7 mM). For the same molecule, the EC50 in the experiment with Penicillium sp. 35/skk, in the experiment on Penicillium sp. 5/skk and with Penicillium sp. Vaip/skk was 600 µg/mL (≈ 11.7 mM) in each case.

For `Oc1cc(Cl)ccc1Oc1ccc(Cl)cc1Cl` [Triclosan, 5-Chloro-2-(2,4-dichlorophenoxy)phenol], the EC50 in the experiment with Ch. cochliodes OT7b (read-out: EC50) is 4 µg/mL (≈ 0.0138 mM); in the experiment with Ch. cochliodes OT7 (read-out: EC50), 4 µg/mL (≈ 0.0138 mM); with Ch. rectangulare M015 (read-out: EC50), 2 µg/mL (≈ 0.00691 mM); in [2] (FLAVI1/37, read-out: EC50), 8 µg/mL (≈ 0.0276 mM); in experiment [3] (FLAVI7D, read-out: EC50), 8 µg/mL (≈ 0.0276 mM); in experiment [4] (read-out: EC50), 16 µg/mL (≈ 0.0553 mM). The 50% effective concentration (EC50) amounted to 16 µg/mL (≈ 0.0553 mM) in [5] (read-out: EC50); 16 µg/mL (≈ 0.0553 mM) in experiment [6] (read-out: EC50); 16 µg/mL (≈ 0.0553 mM) in experiment [7] (read-out: EC50); 16 µg/mL (≈ 0.0553 mM) in experiment [8] (read-out: EC50); 2 µg/mL (≈ 0.00691 mM) in the experiment on Penicillium sp. 5/skk (SP.5/SKK, read-out: EC50); 8 µg/mL (≈ 0.0276 mM) in the experiment on Penicillium sp. HJ2 (read-out: EC50). Besides, the values for the half-maximal effective concentration (EC50) (with Penicillium sp. Vaip/skk (read-out: EC50); in [9] (read-out: EC50)) were 4 µg/mL (≈ 0.0138 mM) and 16 µg/mL (≈ 0.0553 mM), respectively.
